Key:
GSPT1 = GSPT1 (Homo sapiens, UniProt P15170+Q96SW2); experiment: HiBiT degradation assay, GSPT1, Procedure A; type: cell-based; design: HiBit-GSPT1 KI HEK293(LgBit) Cells; host or cells: HEK293(LgBit) knock-in cells; details: six hours incubation
Description: (§1) Compounds were spotted onto Cornin 384-Well, Cell Culture-Treated, Flat-Bottom, Low Flange Microplate (Fisher Scientific, Catalog #07-201-013) using a Tecan D300e digital dispenser. Ten-point dose response curves spanning from 10 μM to 0.005 μM with a 0.1% DMSO tolerance were used.
(§2) Cells were dissociated from tissue 182 cm^2 Tissue Culture Flask (CellTreat Catalog #229351) by washing the cells with PBS (Fisher Scientific Catalog #BP3994) followed by dissociation with Trypsin-EDTA (0.25%) (Thermo Scientific Catalog #25200056). Trysin was neutralized and cells were resuspended with DMEM+10% FBS. Cells were centrifuged for 5 minutes at 1200 RPMs. Cell culture media was aspirated off and cells were resuspended with DMEM+10% FBS. Cell density was determined using a Denovix CellDrop BF cell counter. Cell density was adjusted to 1×10^6 cells/ml. 40 μl of cells was added to compound treated tissue culture plates and incubated for six hours at 37° C. After six hours, cell culture plates were removed from tissue culture incubator and cooled to room temperature. 40 μl of Nano-GloHiBiT Lytic Detection Reagent (Promega, Catalog #N3040) was added to each well. Plates were placed on an orbital shaker (600 rpm) for 20 minutes. Luminescence was measured using an Envsion plate reader (Perkin Elmer). DC50 curves and Ymin were generated using a 4-parameter curve fit with GraphPad Prism software (Prism Corporation).
(§3) Results from the HiBiT assay (DC50 (nM) and Ymin (% remaining)) are shown below. All CK1α data was generated according to Procedure A. GSPT1 data for Examples 1-600, 603-620 and 703-705 was generated according to Procedure A. GSPT1 data for Examples 601, 621-702 and 706-735 was generated according to Procedure B.

CK1α = target: T1, CK1α (Homo sapiens, UniProt P48729+Q96SW2); experiment: HiBiT degradation assay, CK1α, Procedure A; type: cell-based; details: six hours incubation
T1 construct: CSNK1A1-HiBit KI HEK293(LgBit) Cells; host or cells: HEK293(LgBit) knock-in cells
T1 sequence (P48729 whole entry): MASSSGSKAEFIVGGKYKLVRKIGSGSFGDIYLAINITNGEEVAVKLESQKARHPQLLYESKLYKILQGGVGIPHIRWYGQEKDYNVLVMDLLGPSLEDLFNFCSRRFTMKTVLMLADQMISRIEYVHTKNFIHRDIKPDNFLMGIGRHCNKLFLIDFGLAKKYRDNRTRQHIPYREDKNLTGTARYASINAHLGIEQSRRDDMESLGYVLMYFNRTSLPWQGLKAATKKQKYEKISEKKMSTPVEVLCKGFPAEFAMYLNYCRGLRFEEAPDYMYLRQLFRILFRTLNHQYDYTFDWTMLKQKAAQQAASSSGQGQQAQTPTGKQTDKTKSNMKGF
T1 sequence (Q96SW2 whole entry): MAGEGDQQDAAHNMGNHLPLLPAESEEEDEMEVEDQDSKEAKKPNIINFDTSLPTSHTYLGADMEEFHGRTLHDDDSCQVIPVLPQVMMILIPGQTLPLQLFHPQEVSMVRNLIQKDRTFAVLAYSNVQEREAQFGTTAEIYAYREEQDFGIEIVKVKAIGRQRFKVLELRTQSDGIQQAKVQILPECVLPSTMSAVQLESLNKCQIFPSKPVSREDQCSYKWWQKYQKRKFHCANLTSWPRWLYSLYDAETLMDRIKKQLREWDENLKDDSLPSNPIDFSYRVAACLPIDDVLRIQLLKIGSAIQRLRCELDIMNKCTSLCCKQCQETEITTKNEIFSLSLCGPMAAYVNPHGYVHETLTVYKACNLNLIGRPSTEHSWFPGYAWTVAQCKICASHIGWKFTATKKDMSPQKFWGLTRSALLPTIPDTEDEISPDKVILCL
T1 sequence (Q16531 whole entry partner): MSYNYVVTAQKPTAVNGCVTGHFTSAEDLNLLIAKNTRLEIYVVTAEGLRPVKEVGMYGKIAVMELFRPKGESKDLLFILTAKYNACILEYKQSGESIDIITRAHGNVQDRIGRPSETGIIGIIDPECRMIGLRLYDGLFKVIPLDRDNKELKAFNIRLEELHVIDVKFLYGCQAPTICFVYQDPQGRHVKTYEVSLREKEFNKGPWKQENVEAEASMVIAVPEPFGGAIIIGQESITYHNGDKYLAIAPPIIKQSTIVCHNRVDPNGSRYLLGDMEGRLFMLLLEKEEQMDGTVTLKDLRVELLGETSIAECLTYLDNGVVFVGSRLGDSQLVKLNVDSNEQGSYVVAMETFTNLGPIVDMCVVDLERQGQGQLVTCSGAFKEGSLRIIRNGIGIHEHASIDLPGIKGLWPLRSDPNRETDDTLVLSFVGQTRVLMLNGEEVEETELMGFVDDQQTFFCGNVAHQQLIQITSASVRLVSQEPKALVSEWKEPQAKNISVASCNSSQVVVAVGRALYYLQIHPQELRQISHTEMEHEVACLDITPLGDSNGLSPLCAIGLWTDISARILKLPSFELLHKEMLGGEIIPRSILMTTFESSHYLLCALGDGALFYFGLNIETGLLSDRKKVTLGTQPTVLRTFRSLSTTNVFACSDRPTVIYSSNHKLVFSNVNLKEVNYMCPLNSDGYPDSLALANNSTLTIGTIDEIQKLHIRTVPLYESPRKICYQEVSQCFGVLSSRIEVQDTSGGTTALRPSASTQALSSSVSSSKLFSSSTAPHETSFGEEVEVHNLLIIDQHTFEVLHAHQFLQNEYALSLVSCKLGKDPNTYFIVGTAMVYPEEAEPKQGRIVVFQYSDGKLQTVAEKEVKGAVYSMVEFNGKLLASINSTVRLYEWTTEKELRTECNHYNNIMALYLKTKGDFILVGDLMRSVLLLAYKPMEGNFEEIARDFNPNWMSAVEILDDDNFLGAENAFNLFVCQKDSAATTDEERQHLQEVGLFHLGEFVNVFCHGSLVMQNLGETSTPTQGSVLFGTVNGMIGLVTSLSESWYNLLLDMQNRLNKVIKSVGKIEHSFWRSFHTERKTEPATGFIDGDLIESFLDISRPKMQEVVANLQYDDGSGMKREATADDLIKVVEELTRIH
Description: as §1, §2, §3

GSPT1, sequence (P15170 whole entry): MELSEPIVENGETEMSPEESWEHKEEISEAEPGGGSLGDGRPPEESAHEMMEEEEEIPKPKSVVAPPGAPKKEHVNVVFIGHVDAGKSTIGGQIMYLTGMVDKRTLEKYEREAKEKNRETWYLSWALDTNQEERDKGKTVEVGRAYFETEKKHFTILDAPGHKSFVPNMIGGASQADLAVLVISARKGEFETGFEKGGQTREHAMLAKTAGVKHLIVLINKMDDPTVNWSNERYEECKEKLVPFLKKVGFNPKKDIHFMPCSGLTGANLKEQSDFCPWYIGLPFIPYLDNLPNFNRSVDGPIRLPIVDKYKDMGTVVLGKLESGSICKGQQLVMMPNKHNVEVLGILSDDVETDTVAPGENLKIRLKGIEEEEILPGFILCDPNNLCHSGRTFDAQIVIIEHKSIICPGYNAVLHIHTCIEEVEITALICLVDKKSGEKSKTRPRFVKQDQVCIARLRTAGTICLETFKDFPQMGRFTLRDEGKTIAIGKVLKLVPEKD
GSPT1, sequence (Q96SW2 whole entry): as the sequence (Q96SW2 whole entry) above
GSPT1, sequence (Q16531 whole entry partner): as the sequence (Q16531 whole entry partner) above

| Structure (SMILES) | DC50 (GSPT1) | GSPT1 Ymin (GSPT1) | CK1α Ymin (CK1α) | DC50 (CK1α) |
| --- | --- | --- | --- | --- |
| Cn1ncc(-c2ccc3c(c2)CN(C2CCC(=O)NC2=O)C3=O)c1-c1ccc(C(F)(F)F)cc1 (centres unmarked) [Example 63] | ≥ 25 nM | F (F = >75-100% remaining) | E (E = >25-75% remaining) | < 25 nM |
| COc1ccc(-c2c(-c3ccc4c(c3)CN(C3CCC(=O)NC3=O)C4=O)cnn2C)c(Cl)c1 (centres unmarked) [Example 65] | ≥ 25 nM | F (F = >75-100% remaining) | D (D = >10- 25% remaining) | < 25 nM |
| Cc1sccc1-c1c(-c2ccc3c(c2)CN(C2CCC(=O)NC2=O)C3=O)cnn1C (centres unmarked) [Example 66] | ≥ 25 nM | F (F = >75-100% remaining) | E (E = >25-75% remaining) | ≥ 25 nM |
| Cn1ncc(-c2ccc3c(c2)CN(C2CCC(=O)NC2=O)C3=O)c1-c1ccccc1F (centres unmarked) [Example 67] | ≥ 25 nM | F (F = >75-100% remaining) | E (E = >25-75% remaining) | < 25 nM |
| Cn1ncc(-c2ccc3c(c2)CN(C2CCC(=O)NC2=O)C3=O)c1-c1ccc(Cl)s1 (centres unmarked) [Example 68] | ≥ 25 nM | F (F = >75-100% remaining) | D (D = >10- 25% remaining) | < 25 nM |
| COc1cccc(-c2c(-c3ccc4c(c3)CN(C3CCC(=O)NC3=O)C4=O)cnn2C)c1 (centres unmarked) [Example 69] | ≥ 25 nM | F (F = >75-100% remaining) | E (E = >25-75% remaining) | < 25 nM |
| COc1ccc(-c2c(-c3ccc4c(c3)CN(C3CCC(=O)NC3=O)C4=O)cnn2C)cc1 (centres unmarked) [Example 70] | ≥ 25 nM | F (F = >75-100% remaining) | C (C = 0-10% remaining) | < 25 nM |
| Cn1ncc(-c2ccc3c(c2)CN(C2CCC(=O)NC2=O)C3=O)c1-c1ccccc1C(F)(F)F (centres unmarked) [Example 71] | ≥ 25 nM | F (F = >75-100% remaining) | F (F = >75-100% remaining) | < 25 nM |
| Cn1ncc(-c2ccc3c(c2)CN(C2CCC(=O)NC2=O)C3=O)c1-c1cccc(F)c1F (centres unmarked) [Example 73] | ≥ 25 nM | F (F = >75-100% remaining) | E (E = >25-75% remaining) | < 25 nM |
| Cc1ccccc1-c1c(-c2ccc3c(c2)CN(C2CCC(=O)NC2=O)C3=O)cnn1C (centres unmarked) [Example 74] | ≥ 25 nM | F (F = >75-100% remaining) | E (E = >25-75% remaining) | < 25 nM |
| Cn1ncc(-c2ccc3c(c2)CN(C2CCC(=O)NC2=O)C3=O)c1-c1ccc(Cl)c(Cl)c1 (centres unmarked) [Example 75] | ≥ 25 nM | F (F = >75-100% remaining) | E (E = >25-75% remaining) | ≥ 25 nM |
| Cc1cccc(-c2c(-c3ccc4c(c3)CN(C3CCC(=O)NC3=O)C4=O)cnn2C)c1 (centres unmarked) [Example 76] | ≥ 25 nM | F (F = >75-100% remaining) | D (D = >10- 25% remaining) | < 25 nM |
| Cn1ncc(-c2ccc3c(c2)CN(C2CCC(=O)NC2=O)C3=O)c1-c1cc(F)ccc1F (centres unmarked) [Example 77] | ≥ 25 nM | F (F = >75-100% remaining) | E (E = >25-75% remaining) | < 25 nM |
| COc1cc(-c2c(-c3ccc4c(c3)CN(C3CCC(=O)NC3=O)C4=O)cnn2C)ccc1C (centres unmarked) [Example 78] | ≥ 25 nM | F (F = >75-100% remaining) | E (E = >25-75% remaining) | < 25 nM |
| Cn1ncc(-c2ccc3c(c2)CN(C2CCC(=O)NC2=O)C3=O)c1-c1ccc(Cl)cc1F (centres unmarked) [Example 79] | ≥ 25 nM | F (F = >75-100% remaining) | E (E = >25-75% remaining) | < 25 nM |
| Cc1ccc(-c2c(-c3ccc4c(c3)CN(C3CCC(=O)NC3=O)C4=O)cnn2C)cc1Cl (centres unmarked) [Example 80] | ≥ 25 nM | F (F = >75-100% remaining) | E (E = >25-75% remaining) | < 25 nM |
| Cn1ncc(-c2ccc3c(c2)CN(C2CCC(=O)NC2=O)C3=O)c1-c1ccc(OCc2ccccc2)c(Cl)c1 (centres unmarked) [Example 81] | ≥ 25 nM | F (F = >75-100% remaining) | E (E = >25-75% remaining) | ≥ 25 nM |

Reference: patent US20240158370A1, “CK1 alpha AND DUAL CK1 alpha / GSPT1 DEGRADING COMPOUNDS” (Innovo Therapeutics, Inc., priority 2022, published 2024)
